Results as given in ChEMBL document CHEMBL1201862, “PubChem BioAssay data set” (2004).
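A five-concentration, 48-hour dose response in 96-well plates underlies each endpoint, interpolated linearly between surrounding concentrations. GI50 = concentration required for 50% inhibition of growth.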 Calls of active or inactive are those of the source. Cut-off read from the data, not from the text of the source: active = GI50 up to about 1.1 µM and inactive = higher.

Tests used:
Assay in all cases: NCI-60 cell line screen, 48 h
[1] = test system: SK-MEL-28
[2] = test system: Malme-3M
[3] = test system: T47D
[4] = test system: SN12C
[5] = test system: PC-3
[6] = test system: KM-20L2
[7] = test system: OVCAR-4
[8] = test system: CCRF-CEM
[9] = test system: SNB-78
[10] = test system: HOP-62
[11] = test system: SR
[12] = test system: XF498
[13] = test system: A498
[14] = test system: IGROV-1
[15] = test system: U-251
[16] = test system: M14
[17] = test system: A549
[18] = test system: BT-549
[19] = test system: SK-OV-3
[20] = test system: TK-10
[21] = test system: EKVX
[22] = test system: HCT-15
[23] = test system: MOLT-4
[24] = test system: RXF 393
[25] = test system: OVCAR-8
[26] = test system: MDA-N
[27] = test system: SW-620
[28] = test system: DLD-1
[29] = test system: Hs-578T
[30] = test system: 786-0
[31] = test system: NCI-H226
[32] = test system: MDA-MB-435
[33] = test system: NCI-H23
[34] = test system: OVCAR-5
[35] = test system: CAKI-1
[36] = test system: MDA-MB-231
[37] = test system: HCT-116
[38] = test system: SF-539
[39] = test system: M19-MEL
[40] = test system: SK-MEL-5
[41] = test system: SK-MEL-2
[42] = test system: UACC-62
[43] = test system: SF-295
[44] = test system: HL-60
[45] = test system: UO-31
[46] = test system: COLO 205
[47] = test system: K562
[48] = test system: RPMI-8226
[49] = test system: ACHN
[50] = test system: LOX IMVI
[51] = test system: SNB-75
[52] = test system: NCI-H522
[53] = test system: MCF7
[54] = test system: SF-268
[55] = test system: KM12
[56] = test system: HOP-18
[57] = test system: HCC 2998
[58] = test system: SNB-19
[59] = test system: HOP-92
[60] = test system: OVCAR-3
[61] = test system: NCI/ADR-RES
[62] = test system: NCI-H460
[63] = test system: HT-29
[64] = test system: DMS-114
[65] = test system: DU-145
[66] = test system: UACC-257
[67] = test system: DMS-273

Measured: GI50

Nc1ncn([C@H]2C[C@H](O)[C@@H](CO)O2)c(=O)n1 [DECITABINE]
inactive: [1] 97.3 µM | [2] 127 µM | [3] 10.4 µM | [4] 83.8 µM | [5] 9.57 µM | [6] > 375 µM | [7] 104 µM | [8] 4.59 µM | [9] 373 µM | [10] 111 µM | [11] 2.67 µM | [12] 25.5 µM | [13] 135 µM | [14] 102 µM | [15] 102 µM | [16] 9.59 µM | [17] 21.4 µM | [18] 13.6 µM | [19] 76.2 µM | [20] 46.8 µM | [21] 104 µM | [23] 11.6 µM | [24] 136 µM | [25] 16.9 µM | [26] 1.46 µM | [27] 29 µM | [28] 3.09 µM | [29] 3.32 µM | [30] 9.42 µM | [31] 68.7 µM | [32] 2.49 µM | [33] 118 µM | [34] 106 µM | [35] 219 µM | [36] 17.8 µM | [37] 48.9 µM | [38] 92 µM | [39] 5.86 µM | [40] 74.6 µM | [41] 38.1 µM | [42] 83.8 µM | [43] 102 µM | [44] > 24.8 µM | [45] 298 µM | [46] 37.7 µM | [47] 18.7 µM | [48] 54.7 µM | [49] 21.5 µM | [50] 99.5 µM | [51] 82.8 µM | [52] 36.7 µM | [53] 74.8 µM | [54] 119 µM | [55] 72.6 µM | [56] > 99.1 µM | [57] 105 µM | [58] 138 µM | [59] 175 µM | [60] 76.6 µM | [61] > 347 µM | [62] 6.59 µM | [63] 51.3 µM | [64] 371 µM | [65] 8.79 µM | [66] 34.9 µM
2.77 µM: [22]

CCOC(=O)CCC(=O)C1c2cccc(O)c2C(=O)c2c(O)cccc21
inactive: [1] 1.33 µM | [2] 1.78 µM | [4] 1.33 µM | [9] 2.04 µM | [10] 1.73 µM | [11] 2.24 µM | [14] 1.87 µM | [20] 2.38 µM | [23] 2.31 µM | [25] 1.58 µM | [28] 1.69 µM | [30] 1.74 µM | [33] 1.37 µM | [34] 1.75 µM | [35] 2.36 µM | [37] 1.31 µM | [67] 1.28 µM | [46] 2.01 µM | [49] 1.43 µM | [56] 1.77 µM | [58] 1.56 µM | [59] 1.49 µM | [63] 2.74 µM | [66] 1.69 µM
active: [7] 0.611 µM | [8] 1.1 µM | [12] 0.236 µM | [15] 0.301 µM | [16] 0.566 µM | [17] 0.61 µM | [24] 0.71 µM | [27] 0.6 µM | [38] 0.411 µM | [39] 0.566 µM | [40] 0.226 µM | [42] 0.395 µM | [43] 0.644 µM | [44] 0.223 µM | [45] 0.356 µM | [47] 0.37 µM | [50] 0.604 µM | [51] 0.877 µM | [52] 0.408 µM | [54] 0.908 µM | [55] 0.652 µM | [57] 0.537 µM | [60] 0.942 µM | [62] 0.26 µM | [64] 0.387 µM
